From US11168095B2, “ASK1 inhibiting agents” (BIOGEN MA INC., priority 2017, dated 2021)
Read-outs that look alike come from different tables or passages of the source.

Assays:
ASK1/MAP3K5 = ASK1/MAP3K5 (Homo sapiens (Human), UniProt Q99683); assay: ASK1/MAP3K5 assay by Reaction Biology Corp.; format: biochemical; conditions: 20 μM myelin basic protein (MBP), 10 μM ATP
Protocol: ASK1/MAP3K5 was used as the protein kinase and 20 μM of myelin basic protein (MBP) and 10 μM ATP were used as the substrate.

GST-hASK1 = GST-hASK1 (Homo sapiens (Human), UniProt Q99683); assay: ASK1 TR-FRET assay; format: biochemical; conditions: 5 nM GST-hASK1, 100 μM ATP, 2 μM STK Substrate 3
Protocol: The protein kinase activity of 5 nM GST-hASK1(Life Technologies PV4011) was assayed with 100 μM ATP and 2 μM of HTRF biotinylated STK Substrate 3 (CisBio Kit 62ST3PEJ), at ambient temperature in 25 mM Hepes, pH 7.5, 50 mM NaCl, 10 mM MgCl2, 0.02% Brij-35, 1 mM DTT, and 1% DMSO.
After a 10 minute pre-incubation, ASK1 protein kinase activity was initiated by addition of 10 μL of 300 μM ATP.

[1] = target: ASK1 T838 auto phosphorylation in HEK-293T cells (Homo sapiens (Human), UniProt Q99683); assay: ASK1 (AUTO PHOS T838) assay, MSD format; format: cell-based
[2] = HEK 293T cells transfected with ASK1-V5 full length plasmid, compounds 1 hr at 37° C., read-out: IC50

Sequence of ASK1 T838 auto phosphorylation in HEK-293T cells (Q99683 whole entry): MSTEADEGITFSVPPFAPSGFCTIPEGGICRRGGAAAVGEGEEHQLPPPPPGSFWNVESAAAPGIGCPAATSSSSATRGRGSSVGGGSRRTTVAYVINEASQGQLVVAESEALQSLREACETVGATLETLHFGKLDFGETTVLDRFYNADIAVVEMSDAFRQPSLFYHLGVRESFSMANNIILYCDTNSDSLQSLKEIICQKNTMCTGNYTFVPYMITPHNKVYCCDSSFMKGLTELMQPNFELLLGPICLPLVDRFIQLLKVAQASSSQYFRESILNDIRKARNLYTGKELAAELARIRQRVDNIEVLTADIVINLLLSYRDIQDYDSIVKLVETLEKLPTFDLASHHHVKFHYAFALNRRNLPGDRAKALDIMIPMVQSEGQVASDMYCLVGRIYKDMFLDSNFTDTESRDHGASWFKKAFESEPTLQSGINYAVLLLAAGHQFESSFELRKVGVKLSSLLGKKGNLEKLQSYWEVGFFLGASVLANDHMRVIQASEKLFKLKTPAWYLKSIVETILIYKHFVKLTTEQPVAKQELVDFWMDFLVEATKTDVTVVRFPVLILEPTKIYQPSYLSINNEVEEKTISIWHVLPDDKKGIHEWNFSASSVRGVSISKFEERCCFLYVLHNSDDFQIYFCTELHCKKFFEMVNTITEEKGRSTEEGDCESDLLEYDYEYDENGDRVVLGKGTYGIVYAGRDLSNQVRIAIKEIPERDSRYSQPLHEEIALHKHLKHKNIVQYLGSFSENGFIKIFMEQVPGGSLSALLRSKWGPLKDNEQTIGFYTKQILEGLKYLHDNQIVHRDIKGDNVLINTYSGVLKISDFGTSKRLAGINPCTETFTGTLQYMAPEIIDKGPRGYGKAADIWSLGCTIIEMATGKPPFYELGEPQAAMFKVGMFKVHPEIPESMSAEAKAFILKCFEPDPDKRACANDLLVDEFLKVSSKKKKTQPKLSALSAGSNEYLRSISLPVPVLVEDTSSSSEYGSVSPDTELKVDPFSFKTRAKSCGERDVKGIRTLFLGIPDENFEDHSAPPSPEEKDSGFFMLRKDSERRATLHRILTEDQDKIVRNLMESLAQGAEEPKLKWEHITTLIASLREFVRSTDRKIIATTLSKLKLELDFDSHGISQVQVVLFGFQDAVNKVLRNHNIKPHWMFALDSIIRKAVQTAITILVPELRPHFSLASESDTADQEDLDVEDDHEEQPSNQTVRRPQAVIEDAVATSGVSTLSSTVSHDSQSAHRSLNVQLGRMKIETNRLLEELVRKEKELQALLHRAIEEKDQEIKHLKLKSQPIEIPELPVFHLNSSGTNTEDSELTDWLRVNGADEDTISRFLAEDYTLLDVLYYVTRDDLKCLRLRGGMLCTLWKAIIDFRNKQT
Sequence of ASK1/MAP3K5 (Q99683 whole entry): as above
Sequence of GST-hASK1 (Q99683 649-946): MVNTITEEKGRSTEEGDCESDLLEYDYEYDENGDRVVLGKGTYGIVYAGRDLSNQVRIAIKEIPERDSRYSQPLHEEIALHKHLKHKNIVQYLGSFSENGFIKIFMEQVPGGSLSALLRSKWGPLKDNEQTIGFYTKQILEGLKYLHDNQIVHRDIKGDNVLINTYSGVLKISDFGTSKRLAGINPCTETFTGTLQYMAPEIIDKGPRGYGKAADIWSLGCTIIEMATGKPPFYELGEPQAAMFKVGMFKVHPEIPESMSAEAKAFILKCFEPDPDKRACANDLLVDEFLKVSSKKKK

| Compound | IC50 (ASK1/MAP3K5) [µM] | IC50 (GST-hASK1) [µM] | IC50 [1, 2] [µM] | IC50 (GST-hASK1; class given in words) [µM] | IC50 ([1]; read-out: IC50) [µM] | IC50 [1] [µM] |
| --- | --- | --- | --- | --- | --- | --- |
| Cc1cn(-c2ccc3c(c2)C(=O)Nc2cccc(n2)-c2nncn2[C@@H](C)CCCO3)cn1 [Example 94, (S)-10-Methyl-5^5-(4-methyl-1H-imidazol-1-yl)-1^4H-6-oxa-3-aza-2(2,6)-pyridina-1(3,4)-triazola-5(1,2)-benzenacyclodecaphan-4-one] | < 0.1 | < 0.1 | < 1 |  |  |  |
| O=C1Nc2cccc(n2)-c2nncn2CCCCOc2ccc(N3CC4CC(C3)O4)cc21 [Example 6, 5^5-(6-Oxa-3-azabicyclo[3.1.1]heptan-3-yl)-1^4H-6-oxa-3-aza-2(2,6)-pyridina-1(3,4)-triazola-5(1,2)-benzenacyclodecaphan-4-one] | < 0.1 | < 0.1 | < 1 |  |  |  |
| O=C1Nc2cccc(n2)-c2nncn2C/C=C\COc2c(Br)cccc21 [Example 164, (Z)-5^3-Bromo-1^4H-6-oxa-3-aza-2(2,6)-pyridina-1(3,4)-triazola-5(1,2)-benzenacyclodecaphan-8-en-4-one] |  |  | > 10 | ≥ 10 |  |  |
| O=C1Nc2cccc(n2)-c2nncn2CCCCOc2ccc(N3CC(F)(F)C3)cc21 [Example 9, 5^5-(3,3-Difluoroazetidin-1-yl)-1^4H-6-oxa-3-aza-2(2,6)-pyridina-1(3,4)-triazola-5(1,2)-benzenacyclodecaphan-4-one] | < 0.1 | < 0.1 | < 1 |  |  |  |
| O=C1Nc2cccc(n2)-c2nncn2CCCCOc2ccc(-c3ccncc3)cc21 [Example 27, 5^5-(Pyridin-4-yl)-1^4H-6-oxa-3-aza-2(2,6)-pyridina-1(3,4)-triazola-5(1,2)-benzenacyclodecaphan-4-one] | < 0.1 | < 0.1 | < 1 |  |  |  |
| O=C1Nc2cccc(n2)-c2nncn2C/C=C\COc2cc(C(F)(F)F)ccc21 [Example 155, (Z)-5^4-(Trifluoromethyl)-1^4H-6-oxa-3-aza-2(2,6)-pyridina-1(3,4)-triazola-5(1,2)-benzenacyclodecaphan-8-en-4-one] |  | 0.1 to 1 | 1 to 10 |  |  |  |
| O=C1Nc2cccc(n2)-c2nncn2C/C=C\COc2ccc(N3CCOCC3)cc21 [Example 169, (Z)-5^5-Morpholino-1^4H-6-oxa-3-aza-2(2,6)-pyridina-1(3,4)-triazola-5(1,2)-benzenacyclodecaphan-8-en-4-one] |  | < 0.1 |  |  | < 1 |  |
| O=C1Nc2cccc(n2)-c2nncn2CCCCOc2ccc(N3CCC(F)(F)C3)cc21 [Example 10, 5^5-(3,3-Difluoropyrrolidin-1-yl)-1^4H-6-oxa-3-aza-2(2,6)-pyridina-1(3,4)-triazola-5(1,2)-benzenacyclodecaphan-4-one] | < 0.1 | < 0.1 | < 1 |  |  |  |
| O=C1Nc2cccc(n2)-c2nncn2CCCCOc2ccc(-c3cccnc3)cc21 [Example 26, 5^5-(Pyridin-3-yl)-1^4H-6-oxa-3-aza-2(2,6)-pyridina-1(3,4)-triazola-5(1,2)-benzenacyclodecaphan-4-one] | < 0.1 | < 0.1 | < 1 |  |  |  |
| O=C1Nc2cccc(n2)-c2nncn2CCCCOc2ccc(C3=CCOCC3)cc21 [Example 16, 5^5-(3,6-Dihydro-2H-pyran-4-yl)-1^4H-6-oxa-3-aza-2(2,6)-pyridina-1(3,4)-triazola-5(1,2)-benzenacyclodecaphan-4-one] |  | < 0.1 | < 1 |  |  |  |
| Cc1cc(-c2ccc3c(c2)C(=O)Nc2cccc(n2)-c2nncn2CCCCO3)n(C)n1 [Example 34, 5^5-(1,3-Dimethyl-1H-pyrazol-5-yl)-1^4H-6-oxa-3-aza-2(2,6)-pyridina-1(3,4)-triazola-5(1,2)-benzenacyclodecaphan-4-one] | < 0.1 | < 0.1 | < 1 |  |  |  |
| Cn1nccc1-c1ccc2c(c1)C(=O)Nc1cccc(n1)-c1nncn1CCCCO2 [Example 23, 5^5-(1-Methyl-1H-pyrazol-5-yl)-1^4H-6-oxa-3-aza-2(2,6)-pyridina-1(3,4)-triazola-5(1,2)-benzenacyclodecaphan-4-one] | < 0.1 | < 0.1 | < 1 |  |  |  |
| Cn1cncc1-c1ccc2c(c1)C(=O)Nc1cccc(n1)-c1nncn1CCCCO2 [Example 29, 5^5-(1-Methyl-1H-imidazol-5-yl)-1^4H-6-oxa-3-aza-2(2,6)-pyridina-1(3,4)-triazola-5(1,2)-benzenacyclodecaphan-4-one] | < 0.1 | < 0.1 | < 1 |  |  |  |
| C[C@@H]1CCCOc2ccc(-c3cnn(C)c3)cc2C(=O)Nc2cccc(n2)-c2nncn21 [Example 95, (R)-10-Methyl-5^5-(1-methyl-1H-pyrazol-4-yl)-1^4H-6-oxa-3-aza-2(2,6)-pyridina-1(3,4)-triazola-5(1,2)-benzenacyclodecaphan-4-one] |  | 0.1 to 1 | 1 to 10 |  |  |  |
| N#Cc1ccc2c(c1)C(=O)Nc1cccc(n1)-c1nncn1CCCCO2 [Example 20, 4-Oxo-1^4H-6-oxa-3-aza-2(2,6)-pyridina-1(3,4)-triazola-5(1,2)-benzenacyclodecaphane-5^5-carbonitrile] | < 0.1 | < 0.1 | < 1 |  |  |  |
| O=C1Nc2cccc(n2)-c2nncn2CCCCOc2ccc(N3CC4CCC(C3)O4)cc21 [Example 7, 5^5-(8-Oxa-3-azabicyclo[3.2.1]octan-3-yl)-1^4H-6-oxa-3-aza-2(2,6)-pyridina-1(3,4)-triazola-5(1,2)-benzenacyclodecaphan-4-one] |  | < 0.1 | < 1 |  |  |  |
| O=C1Nc2cccc(n2)-c2nncn2CCCCOc2ccc(C3=CCOC3)cc21 [Example 14, 5^5-(2,5-Dihydrofuran-3-yl)-1^4H-6-oxa-3-aza-2(2,6)-pyridina-1(3,4)-triazola-5(1,2)-benzenacyclodecaphan-4-one] |  | < 0.1 | < 1 |  |  |  |
| O=C1Nc2cccc(n2)-c2nncn2C/C=C/COc2cc(C(F)(F)F)ccc21 [Example 154, (E)-5^4-(Trifluoromethyl)-1^4H-6-oxa-3-aza-2(2,6)-pyridina-1(3,4)-triazola-5(1,2)-benzenacyclodecaphan-8-en-4-one] |  | 0.1 to 1 | 1 to 10 |  |  |  |
| O=C1Nc2cccc(n2)-c2nncn2C/C=C\COc2ccc(F)cc21 [Example 159, (Z)-5^5-Fluoro-1^4H-6-oxa-3-aza-2(2,6)-pyridina-1(3,4)-triazola-5(1,2)-benzenacyclodecaphan-8-en-4-one] |  | < 0.1 | < 1 |  |  |  |
| O=C1Nc2cccc(n2)-c2nncn2CCCCOc2cc(C(F)(F)F)ccc21 [Example 153, 5^4-(Trifluoromethyl)-1^4H-6-oxa-3-aza-2(2,6)-pyridina-1(3,4)-triazola-5(1,2)-benzenacyclodecaphan-4-one] |  | < 0.1 | < 1 |  |  |  |
| O=C1Nc2cccc(n2)-c2nncn2C/C=C/COc2ccc(Br)cc21 [Example 162, (E)-5^5-Bromo-1^4H-6-oxa-3-aza-2(2,6)-pyridina-1(3,4)-triazola-5(1,2)-benzenacyclodecaphan-8-en-4-one] |  | < 0.1 | 1 to 10 |  |  |  |
| O=C1Nc2cccc(n2)-c2nncn2C/C=C\COc2c1cccc2C(F)(F)F [Example 167, (Z)-5^3-(Trifluoromethyl)-1^4H-6-oxa-3-aza-2(2,6)-pyridina-1(3,4)-triazola-5(1,2)-benzenacyclodecaphan-8-en-4-one] |  |  | > 10 | ≥ 10 |  |  |
| O=C1Nc2cccc(n2)-c2nncn2C/C=C\COc2ccc(Br)cc21 [Example 161, (Z)-5^5-Bromo-1^4H-6-oxa-3-aza-2(2,6)-pyridina-1(3,4)-triazola-5(1,2)-benzenacyclodecaphan-8-en-4-one] |  | < 0.1 |  |  |  | 1 to 10 |
| CCN1CCN(c2ccc3c(c2)C(=O)Nc2cccc(n2)-c2nncn2CCCCO3)CC1 [Example 13, 5^5-(4-Ethylpiperazin-1-yl)-1^4H-6-oxa-3-aza-2(2,6)-pyridina-1(3,4)-triazola-5(1,2)-benzenacyclodecaphan-4-one] |  | < 0.1 | < 1 |  |  |  |
| O=C1Nc2cccc(n2)-c2nncn2C/C=C/COc2ccc(F)cc21 [Example 158, (E)-5^5-Fluoro-1^4H-6-oxa-3-aza-2(2,6)-pyridina-1(3,4)-triazola-5(1,2)-benzenacyclodecaphan-8-en-4-one] |  | 0.1 to 1 | 1 to 10 |  |  |  |
| O=C1Nc2cccc(n2)-c2nncn2C/C=C/COc2c(Br)cccc21 [Example 163, (E)-5^3-Bromo-1^4H-6-oxa-3-aza-2(2,6)-pyridina-1(3,4)-triazola-5(1,2)-benzenacyclodecaphan-8-en-4-one] |  | 0.1 to 1 | > 10 |  |  |  |
| C=Cc1ccc2c(c1)C(=O)Nc1cccc(n1)-c1nncn1CCCCO2 [Example 19, 5^5-Vinyl-1^4H-6-oxa-3-aza-2(2,6)-pyridina-1(3,4)-triazola-5(1,2)-benzenacyclodecaphan-4-one] |  | < 0.1 | < 1 |  |  |  |
| O=C1Nc2cccc(n2)-c2nncn2C/C=C/COc2cc(F)ccc21 [Example 157, (E)-5^4-Fluoro-1^4H-6-oxa-3-aza-2(2,6)-pyridina-1(3,4)-triazola-5(1,2)-benzenacyclodecaphan-8-en-4-one] |  | 0.1 to 1 | 1 to 10 |  |  |  |
| CN1C(=O)c2cc(Br)ccc2OCCCCn2cnnc2-c2cccc1n2 [Example 152, 5^5-Bromo-3-methyl-1^4H-6-oxa-3-aza-2(2,6)-pyridina-1(3,4)-triazola-5(1,2)-benzenacyclodecaphan-4-one] |  |  | > 10 | ≥ 10 |  |  |
